Reference: patent US20170000133A1, “BENZOXABOROLE FUNGICIDES” (SYNGENTA PARTICIPATIONS AG, priority 2013, published 2017)

system: Plasmopara viticola; assay: whole plant or invertebrate; type: in vivo; conditions: foliar, read-out: disease control

SMILES | pest or weed control at 200 ppm [%]
O=C(OCCc1c(Cl)cccc1Cl)c1cc2c(cc1Cl)COB2O [Compound 240] | ≥ 80
O=C(OCC(F)(F)Cl)c1ccc2c(c1)B(O)OC2 [Compound 314] | ≥ 80
C#CCOC(=O)c1ccc2c(c1)B(O)OC2 [Compound 320] | ≥ 80
O=C(OCC1CC1)c1ccc2c(c1)B(O)OC2 [Compound 328] | ≥ 80
C=CCOC(=O)c1ccc2c(c1)B(O)OC2 [Compound 340] | ≥ 80
CC#CC(C)OC(=O)c1ccc2c(c1)B(O)OC2 (stereo not drawn) [Compound 341] | ≥ 80
O=C(OCc1ccc(C(F)(F)F)nc1)c1ccc2c(c1)B(O)OC2 [Compound 343] | ≥ 80
O=C(OCC(Cl)(Cl)Cl)c1cc2c(cc1F)COB2O [Compound 382] | ≥ 80
O=C(OCC1CC1)c1cc2c(cc1F)COB2O [Compound 388] | ≥ 80
O=C(OC1CCC1)c1cc2c(cc1F)COB2O [Compound 392] | ≥ 80
O=C(OCc1cccc2ccccc12)c1cc2c(cc1F)COB2O [Compound 394] | ≥ 80
C=CCOC(=O)c1cc2c(cc1F)COB2O [Compound 403] | ≥ 80
O=C(OCCc1c(Cl)cccc1Cl)c1cc2c(cc1F)COB2O [Compound 433] | ≥ 80

system: Pythium ultimum; assay: Pythium ultimum / liquid culture (seedling damping off); type: cell-based; conditions: Globisporangium ultimum; 200 ppm; potato dextrose broth, 24° C., 2-3 days after application; read-out: disease control (inhibition of growth determined photometrically)

SMILES | inhibition at 200 ppm [%]
O=C(OCCc1c(Cl)cccc1Cl)c1cc2c(cc1Cl)COB2O [Compound 240] | ≥ 80
O=C(OCC(F)(F)Cl)c1ccc2c(c1)B(O)OC2 [Compound 314] | ≥ 80
C#CCOC(=O)c1ccc2c(c1)B(O)OC2 [Compound 320] | ≥ 80
O=C(OCC1CC1)c1ccc2c(c1)B(O)OC2 [Compound 328] | ≥ 80
C=CCOC(=O)c1ccc2c(c1)B(O)OC2 [Compound 340] | ≥ 80
CC#CC(C)OC(=O)c1ccc2c(c1)B(O)OC2 (stereo not drawn) [Compound 341] | ≥ 80
O=C(OCc1ccc(C(F)(F)F)nc1)c1ccc2c(c1)B(O)OC2 [Compound 343] | ≥ 80
O=C(OCC(Cl)(Cl)Cl)c1cc2c(cc1F)COB2O [Compound 382] | ≥ 80
O=C(OCC1CC1)c1cc2c(cc1F)COB2O [Compound 388] | ≥ 80
O=C(OC1CCC1)c1cc2c(cc1F)COB2O [Compound 392] | ≥ 80
O=C(OCc1cccc2ccccc12)c1cc2c(cc1F)COB2O [Compound 394] | ≥ 80
C=CCOC(=O)c1cc2c(cc1F)COB2O [Compound 403] | ≥ 80

system: Glomerella lagenarium (Colletotrichum lagenarium); assay: Glomerella lagenarium (Colletotrichum lagenarium) / liquid culture (anthracnose); type: cell-based; conditions: Colletotrichum orbiculare, PDB potato dextrose broth, 24° C., 3-4 days after application, read-out: disease control (inhibition of growth measured photometrically)
Description: (§1) 11. Glomerella lagenarium (Colletotrichum lagenarium)/Liquid Culture (Anthracnose): Conidia of the fungus from cryogenic storage were directly mixed into nutrient broth (PDB potato dextrose broth). After placing a DMSO solution of test compound into a 96-well microtiter plate at an application rate of 200 ppm, the nutrient broth containing the fungal spores was added. The test plates were incubated at 24° C. and the inhibition of growth was measured photometrically 3-4 days after application.

SMILES | inhibition at 200 ppm [%]
O=C(OCCc1c(Cl)cccc1Cl)c1cc2c(cc1Cl)COB2O [Compound 240] | ≥ 80
O=C(OCC(F)(F)Cl)c1ccc2c(c1)B(O)OC2 [Compound 314] | ≥ 80
C#CCOC(=O)c1ccc2c(c1)B(O)OC2 [Compound 320] | ≥ 80
O=C(OCC1CC1)c1ccc2c(c1)B(O)OC2 [Compound 328] | ≥ 80
C=CCOC(=O)c1ccc2c(c1)B(O)OC2 [Compound 340] | ≥ 80
CC#CC(C)OC(=O)c1ccc2c(c1)B(O)OC2 (stereo not drawn) [Compound 341] | ≥ 80
O=C(OCc1ccc(C(F)(F)F)nc1)c1ccc2c(c1)B(O)OC2 [Compound 343] | ≥ 80
O=C(OCC(Cl)(Cl)Cl)c1cc2c(cc1F)COB2O [Compound 382] | ≥ 80
O=C(OCC1CC1)c1cc2c(cc1F)COB2O [Compound 388] | ≥ 80
O=C(OC1CCC1)c1cc2c(cc1F)COB2O [Compound 392] | ≥ 80
O=C(OCc1cccc2ccccc12)c1cc2c(cc1F)COB2O [Compound 394] | ≥ 80
C=CCOC(=O)c1cc2c(cc1F)COB2O [Compound 403] | ≥ 80

system: Mycosphaerella arachidis (Cercospora arachidicola); assay: Mycosphaerella arachidis (Cercospora arachidicola) / liquid culture (early leaf spot); type: cell-based; conditions: PDB potato dextrose broth, 24° C., 4-5 days after application, read-out: disease control (inhibition of growth determined photometrically)
Description: as §1, with “12. Mycosphaerella arachidis (Cercospora arachidicola)/Liquid” for “11. Glomerella lagenarium (Colletotrichum lagenarium)/Liquid”, “(Early Leaf Spot):” for “(Anthracnose):”, “determined” for “measured”, “4-5” for “3-4”

SMILES | inhibition at 200 ppm [%]
O=C(OCCc1c(Cl)cccc1Cl)c1cc2c(cc1Cl)COB2O [Compound 240] | ≥ 80
O=C(OCC(F)(F)Cl)c1ccc2c(c1)B(O)OC2 [Compound 314] | ≥ 80
C#CCOC(=O)c1ccc2c(c1)B(O)OC2 [Compound 320] | ≥ 80
O=C(OCC1CC1)c1ccc2c(c1)B(O)OC2 [Compound 328] | ≥ 80
C=CCOC(=O)c1ccc2c(c1)B(O)OC2 [Compound 340] | ≥ 80
CC#CC(C)OC(=O)c1ccc2c(c1)B(O)OC2 (stereo not drawn) [Compound 341] | ≥ 80
O=C(OCc1ccc(C(F)(F)F)nc1)c1ccc2c(c1)B(O)OC2 [Compound 343] | ≥ 80
O=C(OCC(Cl)(Cl)Cl)c1cc2c(cc1F)COB2O [Compound 382] | ≥ 80
O=C(OCC1CC1)c1cc2c(cc1F)COB2O [Compound 388] | ≥ 80
O=C(OC1CCC1)c1cc2c(cc1F)COB2O [Compound 392] | ≥ 80
O=C(OCc1cccc2ccccc12)c1cc2c(cc1F)COB2O [Compound 394] | ≥ 80
C=CCOC(=O)c1cc2c(cc1F)COB2O [Compound 403] | ≥ 80

system: Mycosphaerella graminicola (Septoria tritici); assay: Mycosphaerella graminicola (Septoria tritici) / liquid culture (Septoria blotch); type: cell-based; conditions: Zymoseptoria tritici, PDB potato dextrose broth, 24° C., 4-5 days after application, read-out: disease control (inhibition of growth determined photometrically)
Procedure, shortened: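 Conidia from cryostorage were suspended in potato dextrose broth and added to test compound in DMSO at 200 ppm in microtiter wells. Plates were incubated at 24° C and growth inhibition measured photometrically 4-5 days after application.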

SMILES | inhibition at 200 ppm [%]
O=C(OCCc1c(Cl)cccc1Cl)c1cc2c(cc1Cl)COB2O [Compound 240] | ≥ 80
O=C(OCC(F)(F)Cl)c1ccc2c(c1)B(O)OC2 [Compound 314] | ≥ 80
C#CCOC(=O)c1ccc2c(c1)B(O)OC2 [Compound 320] | ≥ 80
O=C(OCC1CC1)c1ccc2c(c1)B(O)OC2 [Compound 328] | ≥ 80
C=CCOC(=O)c1ccc2c(c1)B(O)OC2 [Compound 340] | ≥ 80
CC#CC(C)OC(=O)c1ccc2c(c1)B(O)OC2 (stereo not drawn) [Compound 341] | ≥ 80
O=C(OCc1ccc(C(F)(F)F)nc1)c1ccc2c(c1)B(O)OC2 [Compound 343] | ≥ 80
O=C(OCC(Cl)(Cl)Cl)c1cc2c(cc1F)COB2O [Compound 382] | ≥ 80
O=C(OCC1CC1)c1cc2c(cc1F)COB2O [Compound 388] | ≥ 80
O=C(OC1CCC1)c1cc2c(cc1F)COB2O [Compound 392] | ≥ 80
O=C(OCc1cccc2ccccc12)c1cc2c(cc1F)COB2O [Compound 394] | ≥ 80
C=CCOC(=O)c1cc2c(cc1F)COB2O [Compound 403] | ≥ 80

system: Gaeumannomyces graminis; assay: Gaeumannomyces graminis / liquid culture (take-all of cereals); type: cell-based; conditions: PDB potato dextrose broth, 24° C., 4-5 days after application, read-out: disease control (inhibition of growth determined photometrically)
Procedure, shortened: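 Cryo-stored mycelial fragments in potato dextrose broth exposed to compound in DMSO at 200 ppm. Incubated at 24 °C; growth inhibition read photometrically 4–5 days after application.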

SMILES | inhibition at 200 ppm [%]
O=C(OCCc1c(Cl)cccc1Cl)c1cc2c(cc1Cl)COB2O [Compound 240] | ≥ 80
O=C(OCC(F)(F)Cl)c1ccc2c(c1)B(O)OC2 [Compound 314] | ≥ 80
C#CCOC(=O)c1ccc2c(c1)B(O)OC2 [Compound 320] | ≥ 80
O=C(OCC1CC1)c1ccc2c(c1)B(O)OC2 [Compound 328] | ≥ 80
C=CCOC(=O)c1ccc2c(c1)B(O)OC2 [Compound 340] | ≥ 80
CC#CC(C)OC(=O)c1ccc2c(c1)B(O)OC2 (stereo not drawn) [Compound 341] | ≥ 80
O=C(OCc1ccc(C(F)(F)F)nc1)c1ccc2c(c1)B(O)OC2 [Compound 343] | ≥ 80
O=C(OCC(Cl)(Cl)Cl)c1cc2c(cc1F)COB2O [Compound 382] | ≥ 80
O=C(OCC1CC1)c1cc2c(cc1F)COB2O [Compound 388] | ≥ 80
O=C(OCc1cccc2ccccc12)c1cc2c(cc1F)COB2O [Compound 394] | ≥ 80
C=CCOC(=O)c1cc2c(cc1F)COB2O [Compound 403] | ≥ 80
O=C(OCCc1c(Cl)cccc1Cl)c1cc2c(cc1F)COB2O [Compound 433] | ≥ 80

system: Monographella nivalis (Microdochium nivale); assay: Monographella nivalis (Microdochium nivale) / liquid culture (foot rot cereals); type: cell-based; conditions: PDB potato dextrose broth, 24° C., 4-5 days after application, read-out: disease control (inhibition of growth determined photometrically)

SMILES | inhibition at 200 ppm [%]
O=C(OCCc1c(Cl)cccc1Cl)c1cc2c(cc1Cl)COB2O [Compound 240] | ≥ 80
O=C(OCC(F)(F)Cl)c1ccc2c(c1)B(O)OC2 [Compound 314] | ≥ 80
C#CCOC(=O)c1ccc2c(c1)B(O)OC2 [Compound 320] | ≥ 80
O=C(OCC1CC1)c1ccc2c(c1)B(O)OC2 [Compound 328] | ≥ 80
C=CCOC(=O)c1ccc2c(c1)B(O)OC2 [Compound 340] | ≥ 80
O=C(OCc1ccc(C(F)(F)F)nc1)c1ccc2c(c1)B(O)OC2 [Compound 343] | ≥ 80
O=C(OCC(Cl)(Cl)Cl)c1cc2c(cc1F)COB2O [Compound 382] | ≥ 80
O=C(OCC1CC1)c1cc2c(cc1F)COB2O [Compound 388] | ≥ 80
O=C(OC1CCC1)c1cc2c(cc1F)COB2O [Compound 392] | ≥ 80
O=C(OCc1cccc2ccccc12)c1cc2c(cc1F)COB2O [Compound 394] | ≥ 80
C=CCOC(=O)c1cc2c(cc1F)COB2O [Compound 403] | ≥ 80
O=C(OCCc1c(Cl)cccc1Cl)c1cc2c(cc1F)COB2O [Compound 433] | ≥ 80

system: Fusarium culmorum; assay: microbe, parasite or virus in culture; type: cell-based; conditions: read-out: disease control (inhibition of growth determined visually)

SMILES | inhibition at 200 ppm [%]
O=C(OCCc1c(Cl)cccc1Cl)c1cc2c(cc1F)COB2O [Compound 433] | ≥ 80

system: Thanatephorus cucumeris (Rhizoctonia solani); assay: Thanatephorus cucumeris (Rhizoctonia solani) / liquid culture (foot rot, damping-off); type: cell-based; conditions: PDB potato dextrose broth, 24° C., 3-4 days after application, read-out: disease control (inhibition of growth determined photometrically)
Procedure, shortened: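 Mycelial fragments from fresh liquid culture were suspended in potato dextrose broth and added to compound in DMSO at 200 ppm. After 3-4 days at 24 °C, growth inhibition was measured photometrically.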

SMILES | inhibition at 200 ppm [%]
O=C(OCCc1c(Cl)cccc1Cl)c1cc2c(cc1Cl)COB2O [Compound 240] | ≥ 80
O=C(OCC(F)(F)Cl)c1ccc2c(c1)B(O)OC2 [Compound 314] | ≥ 80
C#CCOC(=O)c1ccc2c(c1)B(O)OC2 [Compound 320] | ≥ 80
O=C(OCC1CC1)c1ccc2c(c1)B(O)OC2 [Compound 328] | ≥ 80
C=CCOC(=O)c1ccc2c(c1)B(O)OC2 [Compound 340] | ≥ 80
CC#CC(C)OC(=O)c1ccc2c(c1)B(O)OC2 (stereo not drawn) [Compound 341] | ≥ 80
O=C(OCc1ccc(C(F)(F)F)nc1)c1ccc2c(c1)B(O)OC2 [Compound 343] | ≥ 80
O=C(OCC(Cl)(Cl)Cl)c1cc2c(cc1F)COB2O [Compound 382] | ≥ 80
O=C(OCC1CC1)c1cc2c(cc1F)COB2O [Compound 388] | ≥ 80
O=C(OC1CCC1)c1cc2c(cc1F)COB2O [Compound 392] | ≥ 80
O=C(OCc1cccc2ccccc12)c1cc2c(cc1F)COB2O [Compound 394] | ≥ 80
C=CCOC(=O)c1cc2c(cc1F)COB2O [Compound 403] | ≥ 80
O=C(OCCc1c(Cl)cccc1Cl)c1cc2c(cc1F)COB2O [Compound 433] | ≥ 80
